Reference: patent US9994644B2, “mAB 2 anti-Met antibody” (Agency for Science, Technology and Research, priority 2013, dated 2018)

What was measured:
c-Met [1] = biological target: c-Met (Homo sapiens, UniProt P08581); conditions: background statement; cited from earlier work
c-Met [2] = conditions: background statement; cited from earlier work
HaCaT cells = test: Cell scatter assay; format: cell-based; conditions: 10 ng/mL HGF, controls
Experimental: Cell scattering is one of the biological hallmarks of c-Met activation. Agonist bivalent monoclonal antibodies targeting c-Met would activate c-Met and cause cells to become motile and disperse. Here, we examine the effects of purified anti-α-chain c-Met monoclonal antibodies on cell scatter. HaCaT cells were seeded at low density and allowed to grow until colonies formed. Cells were serum-starved for 24 hrs before incubating with 1 μg/mL monoclonal antibodies for 24 hrs. Cells were then fixed and stained with crystal violet. As a control, cell scatter of HaCaT cells was induced with 10 ng/mL of HGF (FIG. 5). […] Anti-HGF antibody and SU11274 were used as controls. SU11274 is a small molecule inhibitor of c-Met.
100-200 HaCaT cells were seeded in 24-well plates and allowed to grow until small colonies were formed (approximately 7 days). Cells were serum-starved for 24 hrs. Cells were incubated with purified monoclonal antibodies (1 μg/mL) for 24 hrs before rinsing twice in cold PBS and fixing in ice-cold methanol. Cells were then stained in 1% crystal-violet (Sigma-Aldrich) solution. Cell staining was observed using Zeiss Axiovert 25 inverted microscope and pictures were taken using a Canon EOS 1000 D camera.

[3] = tested on: caspase activation in SNU-5 cells; test: Caspase-Glo 3/7 caspase activation assay; format: cell-based, human; conditions: SNU-5, 72 hrs; mAb 10 μg/mL, SU11274 5 μM
Experimental: (§1) In order to determine if these antibodies have any physiological effects on tumour cells, 10 μg/mL of mAb was added to SNU-5 cells. […] This indicates SU11274 mode of mechanism is by activation of caspase which in turn result in apoptosis of SNU-5 tumour cells.
(§2) CellTiter-Glo® luminescent cell viability assay and Caspase-Glo® 3/7 Assay (Promega, U.S.A.) were used to determine cell viability and caspase activation respectively. SNU-5 cells (1×10^5 cells) were seeded in each 96-well and treated for 72 hrs before analysis. Cell viability and caspase activation were performed according to manufacturer's protocol. Luminescence was read using the EnVision plate reader (PerkinElmer, U.S.A.).

SNU-5 cells = test: CellTiter-Glo luminescent cell viability assay; format: cell-based, human; conditions: SNU-5, 72 hrs; mAb 10 μg/mL, SU11274 5 μM
Experimental: as §1, §2

mAb 2 = test: Alanine scan ELISA and mAb 2 titration against peptides; format: binding, murine; conditions: for mAb 2 binding to alanine-substituted peptide: 0.05 μg/mL mAb 2, 1 mM DTT; for Increase mAb 2 binding in ascending order: titration of purified mAb 2 against peptides, 1 = least binding
Experimental: Variations of peptides O28 and O29, where each amino acid residue was sequentially substituted for an alanine residue, were synthesised. Streptavidin-coated plates (Pierce/Thermo Scientific, #15520) were blocked with 3% BSA/PBS at room temperature. The peptides were dissolved in DMSO and stored according to manufacturer's recommendation. Streptavidin-coated plates were coated with each peptide (5 μg/mL) overnight at room temperature. Wells were washed before hybridoma supernatant or purified monoclonal antibody was added to the each well. HRP-conjugated anti-mouse antibody was added to detect bound monoclonal antibodies. ELISA substrate (Bio-Rad #172-1067) solution was prepared freshly according to the manufacturer's instructions and added to the wells. Colour change was monitored by eye and the reaction was stopped by adding 100 mM sulphuric acid. Absorbance was read at 450 nm in a microplate reader (SPECTRAmax PLUS^384, Molecular Device, U.S.A.). The crystal structure of c-Met extracellular domain, accession number 1 SHY, was obtained from Protein Data Base (PDB). Computer imaging of the epitopes were analysed by PyMol (DeLano Scientific LLC, U.S.A.) software.
To identify residues within peptides O28 and O29 that are crucial for mAb 2-Met interaction, an alanine scan was performed. Variations of peptide O28 and O29, where each amino acid residue was sequentially substituted for an alanine residue, were synthesised (Table 3). Peptides P1 to P16 (with the SEQ II) NO: […]) and P17 to P31. (with the SEQ ID NO: 40 to 56) were derived from the original peptide O28 and O29 respectively. Using the same ELISA-based assay described above, synthesised peptides were added to streptavidin-coated wells and purified mAb 2 was added to each peptide containing well. mAb 2 binding was determined by absorbance reading at […]. […] Peptide O27, peptide O1 and no peptide were used as negative controls.
The substituted amino acid residues in these peptides are thus involved in mAb 2 epitope. […] This is supported by the loss of mAb 2 binding due to the substitution of proline by alanine in peptides P14, P25 and P10. To determine which residues play a more crucial role in mAb 2 binding, mAb 2 was titrated against the peptides (FIG. 12B). […] These residues are not consecutive residues.

Sequence of c-Met (Homo sapiens, UniProt P08581) (P08581 25-307): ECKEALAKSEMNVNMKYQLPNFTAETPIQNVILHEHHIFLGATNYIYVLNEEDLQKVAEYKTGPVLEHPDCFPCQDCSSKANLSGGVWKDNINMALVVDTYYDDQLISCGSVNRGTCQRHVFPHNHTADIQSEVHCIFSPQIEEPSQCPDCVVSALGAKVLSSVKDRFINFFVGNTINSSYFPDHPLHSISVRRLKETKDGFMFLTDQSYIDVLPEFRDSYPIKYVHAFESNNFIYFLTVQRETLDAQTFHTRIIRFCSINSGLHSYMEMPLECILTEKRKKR
Sequence of c-Met (Homo sapiens, UniProt P08581) (P08581 308-1390): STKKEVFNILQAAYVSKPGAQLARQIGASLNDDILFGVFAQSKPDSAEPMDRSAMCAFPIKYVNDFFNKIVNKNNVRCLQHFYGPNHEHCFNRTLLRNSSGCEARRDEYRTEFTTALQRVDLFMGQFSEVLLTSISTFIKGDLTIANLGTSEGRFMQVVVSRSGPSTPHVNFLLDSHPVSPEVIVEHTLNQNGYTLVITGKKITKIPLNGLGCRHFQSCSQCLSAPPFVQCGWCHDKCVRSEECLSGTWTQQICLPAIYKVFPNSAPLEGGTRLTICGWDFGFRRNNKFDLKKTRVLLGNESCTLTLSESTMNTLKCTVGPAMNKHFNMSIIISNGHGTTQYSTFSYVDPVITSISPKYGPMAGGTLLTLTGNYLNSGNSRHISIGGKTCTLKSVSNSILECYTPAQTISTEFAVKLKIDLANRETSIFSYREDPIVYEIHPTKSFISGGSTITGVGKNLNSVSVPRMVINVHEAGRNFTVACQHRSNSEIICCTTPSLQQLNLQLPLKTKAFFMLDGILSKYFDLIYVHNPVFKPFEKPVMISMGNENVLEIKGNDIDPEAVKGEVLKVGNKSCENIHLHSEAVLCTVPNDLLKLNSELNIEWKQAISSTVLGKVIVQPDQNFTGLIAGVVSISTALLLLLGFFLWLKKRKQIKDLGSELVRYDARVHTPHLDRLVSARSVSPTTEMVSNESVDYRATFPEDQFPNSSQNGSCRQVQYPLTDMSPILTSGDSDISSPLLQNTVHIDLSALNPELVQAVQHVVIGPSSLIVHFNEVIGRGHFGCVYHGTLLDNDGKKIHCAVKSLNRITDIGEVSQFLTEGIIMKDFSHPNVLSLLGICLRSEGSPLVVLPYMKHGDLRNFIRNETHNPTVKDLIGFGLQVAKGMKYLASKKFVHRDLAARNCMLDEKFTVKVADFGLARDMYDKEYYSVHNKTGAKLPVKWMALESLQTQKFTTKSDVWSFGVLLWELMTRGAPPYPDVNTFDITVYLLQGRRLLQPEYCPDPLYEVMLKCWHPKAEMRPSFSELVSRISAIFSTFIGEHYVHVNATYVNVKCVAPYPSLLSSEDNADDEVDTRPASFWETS

Row | Molecule | mAb 2 binding to alanine-substituted peptide (mAb 2) | Increase mAb 2 binding in ascending order (mAb 2) | further results
1 | COc1cc2c(Oc3ccc(-c4cnc(Cc5ccccc5)n(C)c4=O)cc3F)ccnc2cc1OCCCN1CCOCC1 [AM7] |  |  | inhibition of c-Met activation (c-Met [1]): extremely successful
2 | Cc1[nH]c(/C=C2\C(=O)Nc3ccc(S(=O)(=O)Cc4c(Cl)cccc4Cl)cc32)c(C)c1C(=O)N1CCC[C@@H]1CN1CCCC1 [PHA-665752] |  |  | inhibition of c-Met activation (c-Met [1]): extremely successful
3 | Cc1[nH]c(/C=C2\C(=O)Nc3ccc(S(=O)(=O)N(C)c4cccc(Cl)c4)cc32)c(C)c1C(=O)N1CCN(C)CC1 [SU11274] |  |  | inhibition of c-Met activation (c-Met [1]): extremely successful; activity against specific c-Met mutations (c-Met [2]): ineffective; HGF-induced cell scatter (HaCaT cells): remained circular; caspase activation [3]: high caspase activation; cell viability (SNU-5 cells): significant reduction
4 | AIEEPSQCPDCVVSA [P17, alanine-substituted variant of peptide O29] | failed to bind | 5 | 
5 | CIFSPQAEEPSQCPD [P7, alanine-substituted variant of peptide O28] | failed to bind | 8 | 
6 | CIFSPQIAEPSQCPD [P8, alanine-substituted variant of peptide O28] | failed to bind |  | 
7 | CIFSPQIEAPSQCPD [P9, alanine-substituted variant of peptide O28] | failed to bind | 4 | 
8 | CIFSPQIEEPSQCPD [O28, pepscan peptide of human c-Met α-chain] |  | 11 | 
9 | QIAEPSQCPDCVVSA [P19, alanine-substituted variant of peptide O29] | failed to bind | 6 | 
10 | MetMab: monovalent chimeric antibody targeted against c-Met (antibody, chains of the INN, looked up, V domains shown, one-armed monovalent, monovalent chimeric antibody targeted against c-Met) VH: EVQLVESGGGLVQPGGSLRLSCAASGYTFTSYWLHWVRQAPGKGLEWVGMIDPSNSDTRFNPNFKDRFTISADTSKNTAYLQMNSLRAEDTAVYYCATYRSYVTPLDYWGQGTLVTVSS VL: DIQMTQSPSSLSASVGDRVTITCKSSQSLLYTSSQKNYLAWYQQKPGKAPKLLIYWASTRESGVPSRFSGSGSGTDFTLTISSLQPEDFATYYCQQYYAYPWTFGQGTKVEIK |  |  | agonist/antagonist activity towards c-Met (c-Met [1]): antagonist

The next lines start with results.

Row | mAb 2 binding to alanine-substituted peptide (mAb 2) | Increase mAb 2 binding in ascending order (mAb 2) | Molecule | further results
11 | failed to bind |  | AIFSPQIEEPSQCPD [P1, alanine-substituted variant of peptide O28] | 
12 | failed to bind | 7 | CIFSPQIEEASQCPD [P10, alanine-substituted variant of peptide O28] | 
13 | failed to bind |  | CIFSPQIEEPSQCAD [P14, alanine-substituted variant of peptide O28] | 
14 | failed to bind | 10 | CIFSPQIEEPSQCPA [P15, alanine-substituted variant of peptide O28] | 
15 | failed to bind | 9 | QIEAPSQCPDCVVSA [P20, alanine-substituted variant of peptide O29] | 
16 | failed to bind | 3 | QIEEPSQCADCVVSA [P25, alanine-substituted variant of peptide O29] | 
17 |  | 11 | QIEEPSQCPDCVVSA [O29, pepscan peptide of human c-Met α-chain] | 
